Data: patent US20230391845A1, “GLP-1, GIP AND GLUCAGON RECEPTOR TRIPLE AGONISTS” (priority 2020, published 2023)
Where two headings read alike, the source gives them in different places. *1 amine or outer side, *2 acyl side, *3 side chain or, on linkers, in order; H or OH if unused. Where a SMILES comes first, the peptide text is derived from it. Where no end group is shown, it is not given here. Side-chain parts run from the residue outwards. [ ]: non-standard residue; d: D form. The star is where a group is joined. C20 diacid = O=C(O)CCCCCCCCCCCCCCCCCCC(=O)*; C18 diacid = O=C(O)CCCCCCCCCCCCCCCCC(=O)*; γGlu = O=C(O)[C@H](CCC(=O)[*:2])N[*:1]; εLys = N[C@@H](CCCCN[*:1])C(=O)[*:2]; Aib = CC(C)(N)C(=O)O

T1: human glucose-dependent insulinotropic polypeptide receptor (human, UniProt P48546 22-466)
T1 sequence (looked up): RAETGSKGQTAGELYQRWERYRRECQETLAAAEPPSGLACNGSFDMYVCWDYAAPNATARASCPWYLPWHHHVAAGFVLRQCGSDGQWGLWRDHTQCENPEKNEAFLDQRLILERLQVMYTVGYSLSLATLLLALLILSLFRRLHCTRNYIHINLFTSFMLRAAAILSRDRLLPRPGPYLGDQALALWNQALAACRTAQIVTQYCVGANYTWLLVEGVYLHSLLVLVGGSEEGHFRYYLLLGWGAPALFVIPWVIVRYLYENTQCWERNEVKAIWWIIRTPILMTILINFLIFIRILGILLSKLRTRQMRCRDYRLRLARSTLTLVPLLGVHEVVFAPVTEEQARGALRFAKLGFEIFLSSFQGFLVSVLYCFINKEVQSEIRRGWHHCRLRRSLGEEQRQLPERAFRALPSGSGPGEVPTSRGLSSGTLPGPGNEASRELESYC

B1: Compound No. 3 (peptide)
peptide: Y[Aib]QGTFTSDYSIYLDKQAA[Aib]KFVNWLLAGGPSSGAPPPS-NH2
modifications: not fully specified (residue 21); printed as Y-Aib-QGTFTSDYSIYLDKQAA-Aib-K[2-[2-[2-[[2-[2-[2-[[(4S)-4-carboxy-4-(17-carboxyheptadecanoylamino)butanoyl]amino]ethoxy]ethoxy]acetyl]amino]ethoxy]ethoxy]acetyl]-FVNWLLAGGPSSGAPPPS-NH2

Key:
human Gcg receptor = biological target: T2, human Gcg receptor (Homo sapiens, UniProt P47871); test: In vitro functional potency (CRE luciferase; whole cells), human GcgR; format: cell-based; details: BHK CRE luc2P hGcgR whole cells; Table 2; read-out: hGcgR CRE Luc EC50
T2 construct: expressed in transfected cells; host or cells: BHK cells (parent line BHKTS13) containing CRE luciferase
T2 sequence (P47871 26-477): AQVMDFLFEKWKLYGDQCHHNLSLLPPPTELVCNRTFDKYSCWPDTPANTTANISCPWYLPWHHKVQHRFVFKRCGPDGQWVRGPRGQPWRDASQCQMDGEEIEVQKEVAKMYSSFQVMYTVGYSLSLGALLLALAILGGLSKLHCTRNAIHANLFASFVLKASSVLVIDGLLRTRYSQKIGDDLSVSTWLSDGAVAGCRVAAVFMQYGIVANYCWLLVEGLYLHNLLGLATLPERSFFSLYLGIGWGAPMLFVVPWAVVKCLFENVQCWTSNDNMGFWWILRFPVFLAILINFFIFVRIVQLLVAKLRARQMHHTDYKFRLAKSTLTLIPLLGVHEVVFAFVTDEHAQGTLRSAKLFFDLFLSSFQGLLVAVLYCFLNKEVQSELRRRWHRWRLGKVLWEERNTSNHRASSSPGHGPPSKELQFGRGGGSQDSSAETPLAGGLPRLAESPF
Description: The purpose of this example is to test the functional activity, or potency, of the compounds in vitro at the human and mouse GLP-1, GIP, and Gcg receptors. The in vitro functional potency is the measure of target receptor activation in a whole cell assay.
In vitro functional potency was determined by measuring the response of the target receptor in a reporter gene assay in individual cell lines. The assay was performed in stably transfected BHK cell lines that expresses one of the following G-protein coupled receptors: human GLP-1 receptor, human GIP receptor, human Gcg receptor, mouse GLP-1 receptor, mouse GIP receptor, or mouse Gcg receptor; and where each cell line contains the DNA for the cAMP response element (CRE) coupled to a promoter and the gene for firefly luciferase (CRE luciferase). When the respective receptor is activated, it results in the production of cAMP, which in turn results in expression of the luciferase protein. When assay incubation is completed, luciferase substrate (luciferin) is added resulting in the enzymatic conversion of luciferin to oxyluciferin and producing bioluminescence. The luminescence is measured as the readout for the assay.
The cells lines used in these assays were BHK cells with BHKTS13 as a parent cell line. The cell lines were derived from a clone containing the CRE luciferase element and were established by further transfection with the respective receptor to obtain the relevant cell line.
The cells were cultured at 37° C. with 5% CO2 in Cell Culture Medium. They were aliquoted and stored in liquid nitrogen. The cells were kept in continuous culture and were seeded out the day before each assay.
GLP-1R and GcgR Cell Culture Medium consisted of DMEM medium with 10% FBS, 500 µg/mL G418, and 300 µg/mL hygromycin. GIPR Cell Culture Medium consisted of DMEM medium with 10% FBS, 400 µg/mL G418, and 300 µg/mL hygromycin. Assay Buffer consisted of DMEM w/o phenol red, 10 mM Hepes, 1× Glutamax, 1% ovalbumin, and 0.1% Pluronic F-68.
• 1) Cells were plated at 5000 cells/well and incubated overnight in the assay plate. • 2) Cells were washed once in DPBS. • 3) Stocks of the test compounds and reference compounds in concentrations ranging from 100-300 pM were diluted 1:150 in Assay Buffer.
The data from the microtiter plate reader was first regressed in an Excel in order to calculate the x-axis, log scale concentrations based on the individual test compound's stock concentration and the dilutions of the assay. […] The software performs a non-linear regression (log(agonist) vs response). A minimum of two replicates was measured for each sample. The reported values are averages of the replicates.

[1] = Maximal efficacy study in DIO mice, daily s.c. dose titration for up to 60 days (body weight, food intake); format: in vivo, C57BL/6J male mice; details: for Absolute BW (grams) Day 0: Day 0 (baseline); for Absolute BW (grams) Day 0 / Absolute BW (grams) Last day of treatment / Change in BW (%) Last day of treatment: mean ± SEM; for Absolute BW (grams) Last day of treatment / Change in BW (%) Last day of treatment / Average food intake per mouse (grams/day): s.c. once daily; for Absolute BW (grams) Last day of treatment / Change in BW (%) Last day of treatment: dose titration of Table 4, last day of treatment; for Average food intake per mouse (grams/day): dose titration of Table 4, mean ± SEM, n = 1-2
Description: The purpose of this example is to assess the in vivo effect of selected triple agonists on pharmacodynamic parameters in diet-induced obese (DIO) mice. The animals were treated once daily via subcutaneous injection with a liquid formulation of the triple agonist to be tested to assess effects on body weight, foot intake, and glucose tolerance.
C57BL/6J male mice were purchased from Jackson Laboratories at approximately 8 weeks of age. Mice were group housed and fed a high-fat, high-sugar diet from Research Diets (D12331). Mice were maintained on this diet for 12 weeks prior to initializing the pharmacology studies. Mice exceeding a measured body weight of 50 grams were considered diet-induced obese (DIO) and included in pharmacology studies. Mice were exposed to a controlled 12 h:12 h light:dark cycle at ambient room temperature (22° C.) with ab libitum access to food and water. Studies were approved by and performed according to the guidelines of the Institutional Animal Care and Use Committee of the University of Cincinnati.
All compounds in the study were formulated in the following buffer: 50 mM phosphate; 70 mM sodium chloride; 0.05% Tween-80, pH 7.4. Dosing solutions were formulated in glass vials and stored at 2-8° C. Dosing solutions were brought to room temperature before dosing and returned to 2-8° C. after dosing.
DIO mice were distributed into groups (n=8 per group) such that statistical variations in the mean and standard deviations of fat mass and body weight were minimized between groups. The animals were grouped to receive treatment as follows: Vehicle or GLP-1/GIP/Gcg receptor triple agonists as described herein, where vehicle is 50 mM phosphate, 70 mM sodium chloride; 0.05% (v/v) Tween-80, pH 7.4. The test compounds were dissolved in the vehicle, to stock concentrations of […], then diluted 50- to 200-fold in the vehicle to achieve the desired dosing solution concentrations. Animals were dosed subcutaneously once daily in the morning for each day of treatment with dosing solution at a volume of 2-5 μL per gram of body weight as necessary to achieve the desired dose (e.g. 0.3 nmol/kg, 1.0 nmol/kg, or 3.0 nmol/kg).
Body weight (BW) and food intake were measured immediately prior to dosing each day. The percent change in body was calculated individually for each mouse based on initial body weight prior to the first injection.
In one study, DIO mice received a daily subcutaneous dose for up to 60 days of one of the following: vehicle, Compound No. 21, Compound No. 30, or Compound No. 33. The dose of each compound was up-titrated to maximal efficacy based on the titration schedule included in Table 4. Mice that achieved body weight normalization, defined as a body weight of 22.5 g or less, were voluntarily removed from the study. All triple agonist compounds tested resulted is substantially greater reductions of body weight and food intake than vehicle. […] This may be explained by the similar GLP-1R and GIPR in vitro potency but reduced in vitro GcgR potency of Compound No. 21 compared to Compound No. 30 and Compound No. 33 when investigated with the protocol described in Example 2 except using the mouse-specific receptors.

[2] = Pharmacokinetic study in minipigs, i.v. administration; parameters: species or system Göttingen minipigs; details: female, Göttingen, minipig, in vivo, iv; minipigs, i.v. administration, harmonic mean; read-out: Terminal half-life t1/2 (converted)
How it was run: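 Female Göttingen minipigs (7-14 months, 16-35 kg), fasted ~18 h pre-dose to 4 h post-dose, received i.v. injections of usually 1.5-2 nmol/kg via central venous catheter. Plasma sampled up to 14 days, assayed by ELISA or LCMS; terminal half-life (harmonic mean) from non-compartmental analysis.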

[3] = biological target: T3, human glucagon-like peptide 1 receptor (human, UniProt P43220 24-463); test: cell-based or functional assay
[4] = biological target: T1, human glucose-dependent insulinotropic …; test: cell-based or functional assay
human glucagon receptor [5] = biological target: T4, human glucagon receptor (human, UniProt P47871 26-477); test: cell-based or functional assay
T4 sequence (P47871 26-477): as above

[6] = biological target: T3, human glucagon-like peptide 1 receptor; test: cell-based or functional assay; remark: listed apart in the source
[7] = biological target: T1, human glucose-dependent insulinotropic …; test: cell-based or functional assay; remark: listed apart in the source
human glucagon receptor [8] = biological target: T4, human glucagon receptor; test: cell-based or functional assay; remark: listed apart in the source

| Molecule | EC50 (human Gcg receptor) [pM] | Absolute BW (grams) Day 0 [1] [grams] | Absolute BW (grams) Last day of treatment [1] [grams] | Change in BW (%) Last day of treatment [1] [%] | Average food intake per mouse (grams/day) [1] [grams/day] | half-life [2] [h] | hGLP-1R CRE Luc EC50 (pM) [3] [pM] | hGIPR CRE Luc EC50 (pM) [4] [pM] | hGcgR CRE Luc EC50 (pM) (human glucagon receptor [5]) | hGLP-1R CRE Luc EC50 (pM) [6] [pM] | hGIPR CRE Luc EC50 (pM) [7] [pM] | hGcgR CRE Luc EC50 (pM) (human glucagon receptor [8]) |
| --- | --- | --- | --- | --- | --- | --- | --- | --- | --- | --- | --- | --- |
| CC[C@H](C)[C@H](NC(=O)[C@H](CO)NC(=O)[C@H](Cc1ccc(O)cc1)NC(=O)[C@H](CC(=O)O)NC(=O)[C@H](CO)NC(=O)[C@@H](NC(=O)[C@H](Cc1ccccc1)NC(=O)[C@@H](NC(=O)CNC(=O)[C@H](Cc1c[nH]cn1)NC(=O)C(C)(C)NC(=O)[C@@H](N)Cc1c[nH]cn1)[C@@H](C)O)[C@@H](C)O)C(=O)N[C@@H](CC(C)C)C(=O)N[C@@H](CC(C)C)C(=O)N[C@@H](CCC(=O)O)C(=O)N[C@@H](CCCCNC(=O)[C@@H](N)CCCCNC(=O)[C@@H](N)CCCCNC(=O)CC[C@H](NC(=O)CCCCCCCCCCCCCCCCC(=O)O)C(=O)O)C(=O)N[C@@H](CCC(N)=O)C(=O)N[C@@H](C)C(=O)N[C@@H](C)C(=O)N[C@@H](Cc1c[nH]cn1)C(=O)N[C@@H](CCC(=O)O)C(=O)N[C@@H](Cc1ccccc1)C(=O)N[C@H](C(=O)N[C@@H](CCC(N)=O)C(=O)N[C@@H](Cc1c[nH]c2ccccc12)C(=O)N[C@@H](CC(C)C)C(=O)N[C@@H](CC(C)C)C(=O)N[C@@H](CCC(=O)O)C(=O)NCC(=O)NCC(=O)N1CCC[C@H]1C(=O)N[C@@H](CO)C(=O)N[C@@H](CO)C(=O)NCC(=O)N[C@@H](C)C(=O)N1CCC[C@H]1C(=O)N1CCC[C@H]1C(=O)N1CCC[C@H]1C(=O)N[C@@H](CO)C(=O)O)C(C)C [Compound No. 56] (H-H[Aib]HGTFTSDYSILLEK([εLys-εLys-γGlu-C18 diacid])QAAHEFVQWLLEGGPSSGAPPPS-OH) | 6.4 | – | – | – | – | – | – | – | – | – | – | – |
| CC[C@H](C)[C@H](NC(=O)[C@H](CO)NC(=O)[C@H](Cc1ccc(O)cc1)NC(=O)[C@H](CC(=O)O)NC(=O)[C@H](CO)NC(=O)[C@@H](NC(=O)[C@H](Cc1ccccc1)NC(=O)[C@@H](NC(=O)CNC(=O)[C@H](Cc1c[nH]cn1)NC(=O)C(C)(C)NC(=O)[C@@H](N)Cc1c[nH]cn1)[C@@H](C)O)[C@@H](C)O)C(=O)N[C@@H](Cc1ccc(O)cc1)C(=O)N[C@@H](CC(C)C)C(=O)N[C@@H](CCC(=O)O)C(=O)N[C@@H](CCCCNC(=O)[C@@H](N)CCCCNC(=O)[C@@H](N)CCCCNC(=O)CC[C@H](NC(=O)CCCCCCCCCCCCCCCCCCC(=O)O)C(=O)O)C(=O)N[C@@H](CCCCN)C(=O)N[C@@H](C)C(=O)N[C@@H](C)C(=O)NC(C)(C)C(=O)N[C@@H](CCC(=O)O)C(=O)N[C@@H](Cc1ccccc1)C(=O)N[C@H](C(=O)N[C@@H](CCC(N)=O)C(=O)N[C@@H](Cc1c[nH]c2ccccc12)C(=O)N[C@@H](CC(C)C)C(=O)N[C@@H](CC(C)C)C(=O)N[C@@H](CCC(=O)O)C(=O)NCC(=O)NCC(=O)N1CCC[C@H]1C(=O)N[C@@H](CO)C(=O)N[C@@H](CO)C(=O)NCC(=O)N[C@@H](C)C(=O)N1CCC[C@H]1C(=O)N1CCC[C@H]1C(=O)N1CCC[C@H]1C(=O)N[C@@H](CO)C(N)=O)C(C)C [Compound No. 33] (H-H[Aib]HGTFTSDYSIYLEK([εLys-εLys-γGlu-C20 diacid])KAA[Aib]EFVQWLLEGGPSSGAPPPS-NH2) | – | 54.9 ± 2.6 | 24.8 ± 1.4 | −54.5 ± 3.5 | 1.38 ± 0.25 | 47 | – | – | – | – | – | – |
| CC[C@H](C)[C@H](NC(=O)[C@H](CO)NC(=O)[C@H](Cc1ccc(O)cc1)NC(=O)[C@H](CC(=O)O)NC(=O)[C@H](CO)NC(=O)[C@@H](NC(=O)[C@H](Cc1ccccc1)NC(=O)[C@@H](NC(=O)CNC(=O)[C@H](Cc1c[nH]cn1)NC(=O)C(C)(C)NC(=O)[C@@H](N)Cc1c[nH]cn1)[C@@H](C)O)[C@@H](C)O)C(=O)N[C@@H](Cc1ccc(O)cc1)C(=O)N[C@@H](CC(C)C)C(=O)N[C@@H](CCC(=O)O)C(=O)N[C@@H](CCCCNC(=O)[C@@H](N)CCCCNC(=O)[C@@H](N)CCCCNC(=O)CC[C@H](NC(=O)CCCCCCCCCCCCCCCCCCC(=O)O)C(=O)O)C(=O)N[C@@H](CCCCN)C(=O)N[C@@H](Cc1ccc(O)cc1)C(=O)N[C@@H](C)C(=O)NC(C)(C)C(=O)N[C@@H](CCC(=O)O)C(=O)N[C@@H](Cc1ccccc1)C(=O)N[C@H](C(=O)N[C@@H](CCC(N)=O)C(=O)N[C@@H](Cc1c[nH]c2ccccc12)C(=O)N[C@@H](CC(C)C)C(=O)N[C@@H](CC(C)C)C(=O)N[C@@H](CCC(=O)O)C(=O)NCC(=O)NCC(=O)N1CCC[C@H]1C(=O)N[C@@H](CO)C(=O)N[C@@H](CO)C(=O)NCC(=O)N[C@@H](C)C(=O)N1CCC[C@H]1C(=O)N1CCC[C@H]1C(=O)N1CCC[C@H]1C(=O)N[C@@H](CO)C(N)=O)C(C)C [Compound No. 30] (H-H[Aib]HGTFTSDYSIYLEK([εLys-εLys-γGlu-C20 diacid])KYA[Aib]EFVQWLLEGGPSSGAPPPS-NH2; N-terminus assumed) | – | 56.2 ± 1.3 | 22.2 ± 0.3 | −60.5 ± 0.4 | 1.39 ± 0.13 | 78 | – | – | – | – | – | – |
| B1 | – | – | – | – | – | – | 5.4 | 27.5 | 34.7 | 5.4 | 27.5 | 34.7 |
